Data on six molecules can be found in US5700682A, “Mechanism based screen for retinoid X receptor agonists and antagonists” (American Cyanamid Company, priority 1995, dated 1997).

The structures appear in SMILES notation.

Assay [1] has as its system RXRα binding to the apoAI gene site A. The following applies: reticulocyte lysates; cited from earlier work.
A further assay deals with T1, RXRα (Homo sapiens, UniProt P19793).
T1 construct: reporter YRpA: two apoAI site A copies-CYC1-lacZ
T1 sequence (P19793 1-462): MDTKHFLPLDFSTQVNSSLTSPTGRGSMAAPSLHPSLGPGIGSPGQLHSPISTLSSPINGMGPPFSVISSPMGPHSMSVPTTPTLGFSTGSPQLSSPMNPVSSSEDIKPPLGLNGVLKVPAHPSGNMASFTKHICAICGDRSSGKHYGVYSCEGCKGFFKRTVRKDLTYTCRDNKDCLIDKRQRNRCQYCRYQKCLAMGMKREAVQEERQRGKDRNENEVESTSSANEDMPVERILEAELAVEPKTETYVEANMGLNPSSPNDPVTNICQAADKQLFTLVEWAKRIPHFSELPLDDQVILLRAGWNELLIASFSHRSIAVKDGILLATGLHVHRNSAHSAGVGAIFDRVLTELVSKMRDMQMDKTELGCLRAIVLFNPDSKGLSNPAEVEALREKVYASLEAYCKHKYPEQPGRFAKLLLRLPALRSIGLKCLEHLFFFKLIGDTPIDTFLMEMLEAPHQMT
Briefly: Plate assay (X-GAL, blue halo) as a screen to detect RXRα agonists. The following applies: discs containing hormone on agar plate with X-GAL; FIG. 7. The assay is classed as cell-based. An excerpt: Yeast cells containing the RXRα expression plasmid and the reporter construct are inoculated in Yeast media containing the chromogenic substrate, X-GAL® (a registered trademark of 5-bromo-4-chloro-3-indolyl-β-D-galactopyranoside, commercially available from Gibco BRL, Bethesda, Md.).
To identify nontoxic ligands of RXRα, the present invention includes a novel screen for detecting compounds having retinoid X receptor agonist or antagonist activity by the following steps: (1) Providing a yeast strain which expresses the […] and activates the reporter plasmid containing apoAI gene site A or a mutated variant thereof; (2) incubating the compound in suitable media and a colorless chromogenic substrate; and (3) examining the media for development of color. FIG. 7 illustrates the screen as a plate assay which detects RXRα agonists. Yeast cells containing the RXRα expression plasmid and the reporter construct are inoculated in yeast media containing the chromogenic substrate, X-GAL® (a registered trademark of 5-bromo-4-chloro-3-indolyl-β-D-galactopyranoside, commercially available from Gibco BRL, Bethesda, Md.). Other well-known chromogenic substrates may substitute for X-GAL®. Then, discs containing different test compounds may be placed on top of the agar plate. Induction of the reporter enzyme by the ligands of RXRα is reflected by the formation of a color.

As to `CC1=C(/C=C/C(C)=C\C=C\C(C)=C\C(=O)O)C(C)(C)CCC1` [9-cis-RA, 9-cis-retinoic acid], the “Binding of in vitro translated RXRα to apoAI gene site A on supplementing lysates with ligand” value in assay [1] is given as “does not bind to the apoAI gene site A unless these lysates are supplemented”.
Consider `CC(C)(O)CC[C@@H](O)[C@](C)(O)[C@H]1CC[C@@]2(O)C3=CC(=O)[C@@H]4C[C@@H](O)[C@@H](O)C[C@]4(C)[C@H]3CC[C@]12C` [20-hydroxyecdysone], for which, at RXRα, the “Induction of the reporter enzyme as reflected by formation of the blue halo” value was “observed for 9-cis retinoic acid and all-trans-retinoic acids only”.
Consider `CC1=C(/C=C/C(C)=C/C=C/C(C)=C/C(=O)O)C(C)(C)CCC1` [all-trans-RA, all-trans-retinoic acid], for which the “Binding of in vitro translated RXRα to apoAI gene site A on supplementing lysates with ligand” value in assay [1] was “to the lesser extent”.
In the case of `C[C@]12CCC(=O)C=C1CC[C@@H]1[C@@H]2C(=O)C[C@@]2(C)[C@H]1CC[C@]2(O)C(=O)CO` [cortisone], the “Induction of the reporter enzyme as reflected by formation of the blue halo” value on RXRα was “observed for 9-cis retinoic acid and all-trans-retinoic acids only”.
Still for that read-out and setting: next, `CC(=O)[C@H]1CC[C@H]2[C@@H]3CCC4=CC(=O)CC[C@]4(C)[C@H]3CC[C@]12C` [progesterone]: “observed for 9-cis retinoic acid and all-trans-retinoic acids only”; `C[C@]12CC[C@H]3[C@@H](CCC4=CC(=O)CC[C@@]43C)[C@@H]1CC[C@@H]2O` [testosterone]: “observed for 9-cis retinoic acid and all-trans-retinoic acids only”.
